Experimental data taken from patent publication US6482799B1, “Self-preserving multipurpose ophthalmic solutions incorporating a polypeptide antimicrobial” (The Regents of the University of California, priority 1999, dated 2002).

System: P. aeruginosa strain (ATCC 9027)
Assay: Protocol 1 kill curve / MIC, 1 hour at 37° C.
Format: cell-based, Pseudomonas aeruginosa
Conditions: 6.25 μg/ml, 10 mM sodium phosphate buffer
Protocol: This protocol is used to develop dose-response (kill) curves to calculate the minimal inhibitory concentration of an indolicidin (e.g., L-indolicidin (L-IND)) when formulated in a commercially available phosphate buffered saline (PBS) solution. In addition, for comparative purposes, kill curves are established for the following three commonly available commercial lens-care products containing different preservatives:
The stock solutions are diluted in a 2-fold fashion by transferring 1 ml of each stock solution to 1 ml of appropriate diluent in sterile glass tubes (100×13 mm). Twelve additional 2-fold dilutions are made by transferring 1 ml aliquots of each dilution to 1 ml diluent. The diluent for all commercial lens-care products is PBS. […]
Viable counts of the bacteria are performed by 10-fold serial dilutions in sterile PBS and by plating 0.1 ml aliquots on nutrient agar plates. […] The plates are incubated overnight at 37° C. and colonies are counted and recorded. […]
Survival is expressed as number of surviving bacteria (CFU/ml) for each dilution of the test article and control solutions. The lowest dose of the test article that results in complete kill of the test organism, compared to the non-exposed control, is determined to be the MIC value. […]

SMILES: CC[C@H](C)[C@H](N)C(=O)N[C@@H](CC(C)C)C(=O)N1CCC[C@H]1C(=O)N[C@@H](Cc1c[nH]c2ccccc12)C(=O)N[C@@H](CCCCN)C(=O)N[C@@H](Cc1c[nH]c2ccccc12)C(=O)N1CCC[C@H]1C(=O)N[C@@H](Cc1c[nH]c2ccccc12)C(=O)N[C@@H](Cc1c[nH]c2ccccc12)C(=O)N1CCC[C@H]1C(=O)N[C@@H](Cc1c[nH]c2ccccc12)C(=O)N[C@@H](CCCNC(=N)N)C(=O)N[C@@H](CCCNC(=N)N)C(N)=O [L-indolicidin, H2N-ILPWKWPWWPWRR-CONH2]
- survival: 59%
